SMILES strings stand for the structures.

This experiment has as its target T1, recombinant human GST-Syk (Homo sapiens, UniProt P43405).
T1 construct: purchased Carna Biosciences 08-176
Nature of the experiment: Homogeneous Time-Resolved Fluorescence (HTRF) assay for the recombinant human Syk enzyme. The class given is biochemical. The conditions noted are these: recombinant human GST-Syk 5 pM, ATP 25 μM, 10-dose titration 10 μM to 0.508 nM; read-out: rhSYK Activity IC50. The essentials:
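Detection used time-resolved fluorescence 30 min after adding a quench mix (40 mM EDTA, 15 mM Tris pH 7.5, 0.01% Tween 20) containing 2 nM Europium anti-pTyr antibody and 70 nM streptavidin-APC. This followed 45 min of room-temperature peptide phosphorylation by recombinant GST-tagged human Syk.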
(In general: Time-resolved FRET reads energy transfer from a long-lived donor to a nearby acceptor.)
What is called IC50 is the concentration needed to halve the response being measured. Consider `Cc1cc(Nc2cc(C(F)(F)F)ccn2)nc(-c2cn(C(C)C(=O)NCCc3ccc(Oc4ccccc4)cc3)nn2)c1` (centres unmarked) [Example 1.46, 2-[4-(4-methyl-6-{[4-(trifluoromethyl)pyridin-2-yl]amino}pyridin-2-yl)-1H-1,2,3-triazol-1-yl]-N-[2-(4-phenoxyphenyl)ethyl]propanamide], for which the IC50 was determined as 1400 nM.
As to `Cc1cc(Nc2cc(C(F)(F)F)ccn2)nc(-c2cn(CC3(O)CCC(C(=O)O)C(C)(C)C3)nn2)c1` (centres unmarked) [Example 3.5, 4-hydroxy-2,2-dimethyl-4-{[4-(4-methyl-6-{[4-(trifluoromethyl)pyridin-2-yl]amino}pyridin-2-yl)-1H-1,2,3-triazol-1-yl]methyl}cyclohexanecarboxylic acid], the IC50 was found to be 70.4 nM.
As to `COCC(O)Cn1cc(-c2cc(C)cc(Nc3nccc(C(F)(F)F)n3)c2)nn1` (racemic) [Example 5.53, 1-methoxy-3-[4-(3-methyl-5-{[4-(trifluoromethyl)pyrimidin-2-yl]amino}phenyl)-1H-1,2,3-triazol-1-yl]propan-2-ol], the IC50 came out at 58.6 nM.
For `Cc1cc(Nc2cc(C(F)(F)F)ccn2)nc(-c2cn(C[C@H](O)C(=O)O)nn2)c1` [Example 4.19, (2S)-2-hydroxy-3-[4-(4-methyl-6-{[4-(trifluoromethyl)pyridin-2-yl]amino}pyridin-2-yl)-1H-1,2,3-triazol-1-yl]propanoic acid], the IC50 stood at 14.9 nM.
On to `Cc1cc(Nc2nccc(C(F)F)n2)cc(-c2cn(CC3OC(=O)NC3C)nn2)c1` (single isomer, unassigned) [Example 7.7, 5-((4-(3-((4-(difluoromethyl)pyrimidin-2-yl)amino)-5-methylphenyl)-1H-1,2,3-triazol-1-yl)methyl)-4-methyloxazolidin-2-one], for which the IC50 worked out at 9.9 nM.
Regarding `Cc1cc(Nc2cc(C(F)(F)F)ccn2)nc(-c2c[nH]nn2)c1` [Example 5.101, 4-methyl-6-(1H-1,2,3-triazol-4-yl)-N-[4-(trifluoromethyl)pyridin-2-yl]pyridin-2-amine], the IC50 amounted to 25.2 nM.
Turning to `Cc1cc(Nc2nccc(C(F)F)n2)cc(-c2cn(CC3OC(=O)NC3C)nn2)c1` (single isomer, unassigned) [Example 7.6, 5-((4-(3-((4-(difluoromethyl)pyrimidin-2-yl)amino)-5-methylphenyl)-1H-1,2,3-triazol-1-yl)methyl)-4-methyloxazolidin-2-one], the IC50 was 10.2 nM.
Consider `Cc1cc(Nc2nccc(C(F)F)n2)cc(-c2cn(C3CCCC(O)C3O)nn2)c1` (single isomer, unassigned) [Example 25.1, 3-(4-(3-((4-(Difluoromethyl)pyrimidin-2-yl)amino)-5-methylphenyl)-1H-1,2,3-triazol-1-yl)cyclohexane-1,2-diol], for which the IC50 was found to be 9.5 nM.
Turning to `Cc1cc(Nc2nccc(C(F)(F)F)n2)cc(-c2ncnn2C[C@H](O)CO)c1` [Example 2.15, (2S)-3-[5-(3-methyl-5-{[4-(trifluoromethyl)pyrimidin-2-yl]amino}phenyl)-1H-1,2,4-triazol-1-yl]propane-1,2-diol], the IC50 was 3150 nM.
As to `Cc1cc(Nc2cc(C(F)(F)F)ccn2)nc(-c2cn(C3CCC(C(=O)O)C(C)(C)C3)nn2)c1` (single isomer, unassigned) [Example 3.8, 2,2-dimethyl-4-[4-(4-methyl-6-{[4-(trifluoromethyl)pyridin-2-yl]amino}pyridin-2-yl)-1H-1,2,3-triazol-1-yl]cyclohexanecarboxylic acid], the IC50 is 9.8 nM.
`Cc1cc(Nc2cc(C(F)(F)F)ccn2)nc(-c2cn(C[C@@H](O)CO)nn2)c1` [Example 5.19, (2R)-3-[4-(4-methyl-6-{[4-(trifluoromethyl)pyridin-2-yl]amino}pyridin-2-yl)-1H-1,2,3-triazol-1-yl]propane-1,2-diol]: the IC50 is 4 nM.
As to `Cc1cc(Nc2ncc(F)c(C(F)F)n2)cc(-c2cn(CC3OC(=O)NC3C)nn2)c1` (single isomer, unassigned) [Example 7.40, 5-{[4-(3-{[4-(difluoromethyl)-5-fluoropyrimidin-2-yl]amino}-5-methylphenyl)-1H-1,2,3-triazol-1-yl]methyl}-4-methyl-1,3-oxazolidin-2-one], the IC50 is 25.7 nM.
The same measure for `COC(=O)C1CCC(O)(Cn2cc(-c3cc(C)cc(Nc4cc(C(F)(F)F)ccn4)n3)nn2)CC1(C)C` (centres unmarked) [Example 4.12, methyl 4-hydroxy-2,2-dimethyl-4-{[4-(4-methyl-6-{[4-(trifluoromethyl)pyridin-2-yl]amino}pyridin-2-yl)-1H-1,2,3-triazol-1-yl]methyl}cyclohexanecarboxylate]: 145 nM; for `Cc1cc(Nc2nccc(C)n2)cc(-c2cn(CC(C)(O)C(C)(C)O)nn2)c1` (centres unmarked) [Example 21.21, 2,3-dimethyl-1-(4-{3-methyl-5-[(4-methylpyrimidin-2-yl)amino]phenyl}-1H-1,2,3-triazol-1-yl)butane-2,3-diol]: 191 nM; for `Cc1cc(Nc2cc(C(F)F)ccn2)nc(-c2cn(CC3(C)CNC(=O)O3)nn2)c1` (single isomer, unassigned) [Example 7.9, 5-((4-(6-((4-(difluoromethyl)pyridin-2-yl)amino)-4-methylpyridin-2-yl)-1H-1,2,3-triazol-1-yl)methyl)-5-methyloxazolidin-2-one]: 8.4 nM.
As for `Cc1cc(Nc2nccc(C(F)(F)F)n2)cc(-c2cn(CC#N)nn2)c1` [Example 5.78, [4-(3-methyl-5-{[4-(trifluoromethyl)pyrimidin-2-yl]amino}phenyl)-1H-1,2,3-triazol-1-yl]acetonitrile], the figure is 84.1 nM; as for `Cc1cc(Nc2cc(C(F)(F)F)ccn2)nc(-c2cn(C/C=C/COc3ccccc3Cl)nn2)c1` [Example 5.32, 6-{1-[(2E)-4-(2-chlorophenoxy)but-2-en-1-yl]-1H-1,2,3-triazol-4-yl}-4-methyl-N-[4-(trifluoromethyl)pyridin-2-yl]pyridin-2-amine], 752 nM.
On to `Cc1cc(Nc2cc(C(F)(F)F)ccn2)nc(-c2cn(CC(O)COCC(F)(F)F)nn2)c1` (centres unmarked) [Example 4.32, 1-[4-(4 methyl-6-{[4-(trifluoromethyl)pyridin-2-yl]amino}pyridin-2-yl)-1H-1,2,3-triazol-1-yl]-3-(2,2,2-trifluoroethoxy)propan-2-ol], for which the IC50 came out at 4.8 nM.
With `Cc1cc(Nc2cc(C(F)(F)F)ccn2)nc(-c2cn(C3CN(C(=O)C(C)O)CC3O)nn2)c1` (single isomer, unassigned) [Example 13.2, 1-[2-hydroxypropanoyl]-4-[4-(4-methyl-6-{[4-(trifluoromethyl)pyridin-2-yl]amino}pyridin-2-yl)-1H-1,2,3-triazol-1-yl]pyrrolidin-3-ol], the IC50 amounted to 23.6 nM.
For the compound `Cc1cc(Nc2cc(C(F)(F)F)ccn2)nc(-c2cn(C(C)c3ccc(C(=O)O)cc3)nn2)c1` (racemic) [Example 5.41, 4-{1-[4-(4-methyl-6-{[4-(trifluoromethyl)pyridin-2-yl]amino}pyridin-2-yl)-1H-1,2,3-triazol-1-yl]ethyl}benzoic acid], the IC50 was 1.1 nM.
As for `Cc1cc(Nc2nccc(C(F)(F)F)n2)cc(-c2cn(CCO)nn2)c1` [Example 5.1, 2-(4-(3-Methyl-5-((4-(trifluoromethyl)pyrimidin-2-yl)amino)phenyl)-1H-1,2,3-triazol-1-yl)ethanol], the figure is 14.9 nM; as for `Cc1cc(Nc2nccc(C(F)(F)F)n2)cc(-c2cn(CC(C)(O)C(C)(C)O)nn2)c1` (centres unmarked) [Example 21.28, 2,3-dimethyl-1-[4-(3-methyl-5-{[4-(trifluoromethyl)pyrimidin-2-yl]amino}phenyl)-1H-1,2,3-triazol-1-yl]butane-2,3-diol], 13.2 nM.
The same measure for `COc1ccc2[nH]c3c(c2c1)CCN(C(=O)C(C)n1cc(-c2cc(C)cc(Nc4cc(C(F)(F)F)ccn4)n2)nn1)C3` (stereo not drawn) [Example 1.48, 6-{1-[2-(6-methoxy-1,3,4,9-tetrahydro-2H-beta-carbolin-2-yl)-1-methyl-2-oxoethyl]-1H-1,2,3-triazol-4-yl}-4-methyl-N-1.[4-(trifluoromethyl)pyridin-2-yl]pyridin-2-amine]: 257 nM; for `Cc1cc(Nc2cc(C(F)(F)F)ccn2)nc(-c2cn(C[C@@H]3CNC(=O)O3)nn2)c1` [Example 5.103, (5S)-5-{[4-(4-methyl-6-{[4-(trifluoromethyl)pyridin-2-yl]amino}pyridin-2-yl)-1H-1,2,3-triazol-1-yl]methyl}-1,3-oxazolidin-2-one]: 1.9 nM.
On to `Cc1cc(Nc2nccc(C)n2)cc(-c2cn(C3CCCCC3O)nn2)c1` (single isomer, unassigned) [Example 7.21, 2-(4-{3-methyl-5-[(4-methylpyrimidin-2-yl)amino]phenyl}-1H-1,2,3-triazol-1-yl)cyclohexanol], for which the IC50 is 69.5 nM.
Turning to `Cc1cc(Nc2cc(C(F)(F)F)ccn2)nc(-c2cn(CCC(=O)O)nn2)c1` [Example 5.9, 3-[4-(4-methyl-6-{[4-(trifluoromethyl)pyridin-2-yl]amino}pyridin-2-yl)-1H-1,2,3-triazol-1-yl]propanoic acid], the IC50 stood at 38.1 nM.
Turning to `Cc1cc(Nc2nccc(C(F)(F)F)n2)cc(-c2cn(C[C@@H](C)CO)nn2)c1` [Example 5.73, (2R)-2-methyl-3-[4-(3-methyl-5-{[4-(trifluoromethyl)pyrimidin-2-yl]amino}phenyl)-1H-1,2,3-triazol-1-yl]propan-1-ol], the IC50 was determined as 39.2 nM.
As for `Cc1cc(Nc2cc(C(F)(F)F)ccn2)nc(-c2cn(CC(O)CF)nn2)c1` (racemic) [Example 5.93, 1-fluoro-3-[4-(4-methyl-6-{[4-(trifluoromethyl)pyridin-2-yl]amino}pyridin-2-yl)-1H-1,2,3-triazol-1-yl]propan-2-ol], the figure is 6 nM; as for `Cc1cc(Nc2cc(C(F)(F)F)ccn2)nc(-c2cn(CC(O)Cn3cccn3)nn2)c1` (centres unmarked) [Example 4.28, 1-[4-(4-methyl-6-{[4-(trifluoromethyl)pyridin-2-yl]amino}pyridin-2-yl)-1H-1,2,3-triazol-1-yl]-3-(1H-pyrazol-1-yl)propan-2-ol], 6.6 nM.
